According to patent US20110245088A1, “AMIDE-BASED SOLUTION-PHASE DERIVED LIBRARY AND METHOD FOR SCREENING THEREOF” (NATIONAL TSING HUA UNIVERSITY, priority 2010, published 2011):
Entries after “also recorded” stand apart in the source; their conditions may differ. Read-outs that look alike come from different tables or passages of the source.

Tests used:
A549 cell line = test: Cytotoxicity by MTT assay, A549 cell line; assay type: cell-based, Human; settings: for IC50: A549 cell line, purified compounds, incubation of 2 days, read-out: IC 50 of the Compounds Purified from Independent Synthesis, A549
Procedure: (§1) The cell lines were used in the present invention, including A549 (Human type II epithelial cell line, from American Type Culture Collection, Manassas, Va.) and MCF7 (solid human estrogen receptor positive breast carcinoma). A 10 μl coupling product solution was added into the well of microtiterplate planted with 100 μl of above mentioned cell lines in a concentration of 30000 cells/mL. Furthermore, the coupling product in each well was diluted before transferring to the plate. Thus the appropriate working concentration could be determined since the cellular survival ratio of most compounds acting as negative control is greater than 80%. The method was illustrated in FIG. 3. After an incubation of 2 days, the supernatants were washed, followed by adding MTT reagents. After 4 hours, absorbance at 580 nm was recorded according to the usual protocol.

MCF7 cell line = test: Cytotoxicity by MTT assay, MCF7 cell line; assay type: cell-based, human; settings: for IC50: MCF7 cell line, purified compounds, incubation of 2 days, read-out: IC 50 of the Compounds Purified from Independent Synthesis, MCF7; for biological activity (cytotoxicity) in crude library assay: crude coupling products, MCF7 (FIGS. 4a-c; cell line not always given)
Procedure: as §1

O=C(CCC(=O)c1ccc(-c2ccccc2)cc1)NCC1OC(n2ccc(=O)[nH]c2=O)C(O)C1O (centres unmarked) [U18]
IC50 (A549 cell line): > 100 µM
IC50 (MCF7 cell line): > 100 µM

CCCCCCCCCCCC(=O)NC[C@H]1O[C@@H](n2ccc(=O)[nH]c2=O)[C@H](O)[C@@H]1O [U27]
IC50 (A549 cell line): > 100 µM
IC50 (MCF7 cell line): ~100 µM
biological activity (cytotoxicity) in crude library assay (MCF7 cell line): exhibited biological activity; also recorded: subtle cytotoxicity

N.N.[Cl][Pt][Cl] [Cisplatin, reference compound]
IC50 (A549 cell line): 8 ± 3 µM
IC50 (MCF7 cell line): 25 ± 6 µM

O=C(O)c1cccc(C(=O)c2ccc(F)cc2)c1 [D16, 3-(4-fluorobenzoyl)benzoic acid, reference compound]
IC50 (A549 cell line; Homo sapiens, 48 h): > 100 µM
IC50 (MCF7 cell line; Homo sapiens, 48 h): > 100 µM

O=C(O)CCC(=O)c1ccc(-c2ccccc2)cc1 [D18, 4-([1,1′-biphenyl]-4-yl)-4-oxobutanoic acid, reference compound]
IC50 (A549 cell line; Homo sapiens, 48 h): > 100 µM
IC50 (MCF7 cell line; Homo sapiens, 48 h): > 100 µM

CCCCNC(=O)c1cccc(C(=O)c2ccc(F)cc2)c1 [C16]
IC50 (A549 cell line): > 100 µM
IC50 (MCF7 cell line): > 100 µM

C=C(CC)C(=O)c1ccc(OCC(=O)NC[C@H]2O[C@@H](n3ccc(=O)[nH]c3=O)C[C@@H]2O)c(Cl)c1Cl [A15]
IC50 (A549 cell line): > 100 µM
IC50 (MCF7 cell line): > 100 µM
biological activity (cytotoxicity) in crude library assay (MCF7 cell line): exhibited biological activity

O=C(NCC1OC(n2ccc(=O)[nH]c2=O)CC1O)c1cccc(C(=O)c2ccc(F)cc2)c1 (centres unmarked) [A16]
IC50 (A549 cell line): > 100 µM
IC50 (MCF7 cell line): > 100 µM

C=C(CC)C(=O)c1ccc(OCC(=O)NCCCC)c(Cl)c1Cl [C15]
IC50 (A549 cell line): 18 µM
IC50 (MCF7 cell line): 8 ± 5 µM
biological activity (cytotoxicity) in crude library assay (MCF7 cell line): exhibited biological activity

CCCCNC(=O)CCC(=O)c1ccc(-c2ccccc2)cc1 [C18]
IC50 (A549 cell line): 100 µM
biological activity (cytotoxicity) in crude library assay (A549 cell line; crude coupling products, A549): unexpected bioactivity
IC50 (MCF7 cell line): 87 µM
biological activity (cytotoxicity) in crude library assay (MCF7 cell line): exhibited biological activity; also recorded: unexpected bioactivity

C=C(CC)C(=O)c1ccc(OCC(=O)O)c(Cl)c1Cl [D15, 2-(2,3-dichloro-4-(2-methylenebutanoyl)phenoxy)acetic acid, reference compound]
IC50 (A549 cell line; Homo sapiens, 48 h): 84 ± 16 µM
IC50 (MCF7 cell line; Homo sapiens, 48 h): 26 ± 2 µM

O=C(NCC1OC(n2ccc(=O)[nH]c2=O)C(O)C1O)c1ccccc1 (centres unmarked) [U1]
IC50 (A549 cell line): > 100 µM
IC50 (MCF7 cell line): > 100 µM
